Tests used:
[1] = Heavy metal removal ability test in contaminated soil (ICP-MS), arsenic; conditions: for Arsenic (As) Adsorption amount: contaminated soil; for Arsenic (As) Adsorption rate: relative to EDTA control
Procedure: (§1) (1) Preparation of Soil Contaminated with Heavy Metal
(§2) After collecting and pulverizing uncontaminated soil, fine particles obtained by using a mesh were mixed with the aqueous heavy metal solution to prepare soil samples contaminated with heavy metals.
(§3) Each 3 ml of the prepared aqueous solution was added to a soil sample contaminated with heavy metals and mixed for 5 minutes.
(§4) 50 ml of distilled water was added to the contaminated soil mixed with the aqueous solution for restoring soil, stirred for 20 minutes, and settled for 1 hour, and a supernatant was prepared as a sample solution.
(§5) The prepared sample solution was analyzed for the heavy metal component using an Inductively Coupled Plasma Mass Spectrometer (ICP-MS) (Xseries™ 2, Thermo Fisher Scientific, UK).
(§6) Adsorption rate of heavy metals (%)=(Adsorption amount of Embodiment/Adsorption amount of Control)×100 Equation 1

[2] = Heavy metal removal ability test in contaminated soil (ICP-MS), cadmium; conditions: for Cadmium (Cd) Adsorption amount: contaminated soil; for Cadmium (Cd) Adsorption rate: relative to EDTA control
Procedure: as §1, §2, §3, §4, §5, §6

[3] = Heavy metal removal ability test in contaminated soil (ICP-MS), nickel; conditions: for Nickel (Ni) Adsorption amount: contaminated soil; for Nickel (Ni) Adsorption rate: relative to EDTA control
Procedure: as §1, §2, §3, §4, §5, §6

human skin = assay: Skin irritation test of active ingredient (patch method, CTFA guidelines); assay type: in vivo; conditions: 24 h patch; for Test result (number of subject) (+) / Test result (number of subject) (++) / Test result (number of subject) (±) / Test result (number of subject) (−): 20 people; for Test result (number of subject) (+): (+) apparent reddening; for Test result (number of subject) (++): (++) more reddened and swollen; for Test result (number of subject) (±): (±) slightly reddish; for Test result (number of subject) (−): (−) no erythema
Procedure: A filter paper disk was placed in an 8 mm diameter, 10 panels of pin chamber.
After 24 hours, the pin chamber was removed, and skin conditions were visually observed. The degree and grade for skin irritation were calculated according to the following Equation 2, and the results are shown in Table 4 below.
[Criteria for Skin Irritation]
(−): No erythema or particularly no symptoms; (±): slightly reddish than the periphery; (+): Apparent reddening than periphery; (++): More reddened and swollen than periphery.
[Grade for Skin Irritation]
Degree of irritation 0-0.1: Grade I (unstimulated);
Degree of irritation 0.11-0.3: Grade II (weakly stimulated);
Degree of irritation 0.31-0.5: Grade III (moderately stimulated);
Degree of irritation 0.51 or more: Grade IV (strongly stimulated)

[4] = Formaldehyde (formalin) removing ability test (GC); conditions: 2.0% formaldehyde solution, 3 molar equivalents of compound, room temperature; for Formaldehyde GC Area, 30 min: after 30 min; for Formaldehyde GC Area, 180 min: after 180 min; for Formaldehyde GC Area, Initial: initial state
[5] = Heavy metal removal ability test in contaminated soil around a factory (WAK-Me test kit); conditions: 1.0 wt % aqueous solution, colour comparison test kit
Procedure: The contaminated soil around the factory in the industrial complex was collected, pulverized, and meshed to prepare fine particles of soil samples.
Each 3 ml of aqueous solutions for restoring soil was added to soil samples and mixed for 5 minutes.

Compound	Arsenic (As) Adsorption amount ([1]; content 0.5% aqueous solution) [ppm]	Arsenic (As) Adsorption rate ([1]; content 0.5%) [%]	Arsenic (As) Adsorption amount ([1]; content 1.0% aqueous solution) [ppm]	Arsenic (As) Adsorption rate ([1]; content 1.0%) [%]	Arsenic (As) Adsorption amount ([1]; content 2.0% aqueous solution) [ppm]	Arsenic (As) Adsorption rate ([1]; content 2.0%) [%]	Cadmium (Cd) Adsorption amount ([2]; content 0.5% aqueous solution) [ppm]	Cadmium (Cd) Adsorption rate ([2]; content 0.5%) [%]	Cadmium (Cd) Adsorption amount ([2]; content 1.0% aqueous solution) [ppm]	Cadmium (Cd) Adsorption rate ([2]; content 1.0%) [%]	Cadmium (Cd) Adsorption amount ([2]; content 2.0% aqueous solution) [ppm]	Cadmium (Cd) Adsorption rate ([2]; content 2.0%) [%]	Nickel (Ni) Adsorption amount ([3]; content 0.5% aqueous solution) [ppm]	Nickel (Ni) Adsorption rate ([3]; content 0.5%) [%]	Nickel (Ni) Adsorption amount ([3]; content 1.0% aqueous solution) [ppm]	Nickel (Ni) Adsorption rate ([3]; content 1.0%) [%]	Nickel (Ni) Adsorption amount ([3]; content 2.0% aqueous solution) [ppm]	Nickel (Ni) Adsorption rate ([3]; content 2.0%) [%]	Test result (number of subject) (+) (human skin; content 0.1 wt %)	Test result (number of subject) (++) (human skin; content 0.1 wt %)	further results
O=C(O)c1ccc(N(CCN(CCN(c2ccc(C(=O)O)cc2)c2ccc(C(=O)O)cc2)c2ccc(C(=O)O)cc2)CCN(c2ccc(C(=O)O)cc2)c2ccc(C(=O)O)cc2)cc1 [Embodiment 2, 4,4′,4″,4′″-(((ethane-1,2-diylbis((4-carboxyphenyl)azanediyl))bis(ethane-2,1-diyl))bis(azanetriyl))tetrabenzoic Acid]	48	192	49	196	53	212	75	183	86	210	88	215	94	192	96	196	103	210	0	0	Test result (number of subject) (±) (human skin; content 0.1 wt %): 0; Test result (number of subject) (−) (human skin; content 0.1 wt %): 20; Degree of irritation (human skin; content 0.1 wt %): 0; Grade for skin irritation (human skin; content 0.1 wt %): I (Degree of irritation 0-0.1: Grade I (unstimulated)); Test result (number of subject) (+) (human skin; content 0.5 wt %): 0; Test result (number of subject) (++) (human skin; content 0.5 wt %): 0; Test result (number of subject) (±) (human skin; content 0.5 wt %): 0; Test result (number of subject) (−) (human skin; content 0.5 wt %): 20; Degree of irritation (human skin; content 0.5 wt %): 0; Grade for skin irritation (human skin; content 0.5 wt %): I (Degree of irritation 0-0.1: Grade I (unstimulated)); Test result (number of subject) (+) (human skin; content 1.0 wt %): 0; Test result (number of subject) (++) (human skin; content 1.0 wt %): 0; Test result (number of subject) (±) (human skin; content 1.0 wt %): 1; Test result (number of subject) (−) (human skin; content 1.0 wt %): 19; Degree of irritation (human skin; content 1.0 wt %): 0.05; Grade for skin irritation (human skin; content 1.0 wt %): I (Degree of irritation 0-0.1: Grade I (unstimulated)); Formaldehyde GC Area, 30 min [4]: 0.168 mAU*min; Formaldehyde GC Area, 180 min [4]: 0 mAU*min; Formaldehyde GC Area, Initial [4]: 0.305 mAU*min; Total amount (Cu, Zn, Mn, Ni, Cd) [5]: ≤5 ppm
O=C(O)c1ccc(N(CCN(CCN(c2ccc(C(=O)O)o2)c2ccc(C(=O)O)o2)c2ccc(C(=O)O)o2)CCN(c2ccc(C(=O)O)o2)c2ccc(C(=O)O)o2)o1 [Embodiment 4, 5,5′,5″,5′″-(((ethane-1,2-diylbis((5-carboxyfuran-2-yl)azanediyl))bis(ethane-2,1-diyl))bis(azanetriyl))tetrakis(furan-2-carboxylic Acid)]	53	212	56	224	56	224	67	163	74	180	80	195	91	186	94	192	104	212	0	0	Test result (number of subject) (±) (human skin; content 0.1 wt %): 0; Test result (number of subject) (−) (human skin; content 0.1 wt %): 20; Degree of irritation (human skin; content 0.1 wt %): 0; Grade for skin irritation (human skin; content 0.1 wt %): I (Degree of irritation 0-0.1: Grade I (unstimulated)); Test result (number of subject) (+) (human skin; content 0.5 wt %): 0; Test result (number of subject) (++) (human skin; content 0.5 wt %): 0; Test result (number of subject) (±) (human skin; content 0.5 wt %): 0; Test result (number of subject) (−) (human skin; content 0.5 wt %): 20; Degree of irritation (human skin; content 0.5 wt %): 0; Grade for skin irritation (human skin; content 0.5 wt %): I (Degree of irritation 0-0.1: Grade I (unstimulated)); Test result (number of subject) (+) (human skin; content 1.0 wt %): 0; Test result (number of subject) (++) (human skin; content 1.0 wt %): 0; Test result (number of subject) (±) (human skin; content 1.0 wt %): 1; Test result (number of subject) (−) (human skin; content 1.0 wt %): 19; Degree of irritation (human skin; content 1.0 wt %): 0.05; Grade for skin irritation (human skin; content 1.0 wt %): I (Degree of irritation 0-0.1: Grade I (unstimulated)); Formaldehyde GC Area, 30 min [4]: 0.173 mAU*min; Formaldehyde GC Area, 180 min [4]: 0 mAU*min; Formaldehyde GC Area, Initial [4]: 0.305 mAU*min; Total amount (Cu, Zn, Mn, Ni, Cd) [5]: ≤5 ppm
